# Like-named read-outs stand apart in the source and are kept apart here.
# Tests used:
# [1] = tested on: V. dahliae microsclerotia; experiment: Viability of V. dahliae microsclerotia buried in amended soil (test tube bioassay); format: cell-based, Verticillium dahliae; conditions: for Ammonia level in soil coinciding with a rapid loss in the viability of microsclerotia: soil amended with MBM or SM
# Method: The viability of V. dahliae microsclerotia retrieved from soil was determined using the following experimental model system. […] Microsclerotia suspended in crushed silica sand was added to a nylon pouch which was then buried in the soil or suspended in the head space of each tube. Water was added to each tube to bring soil moisture to 0.33 bar tension. The tubes were then loosely capped, and placed in the dark at 24° C. On each date of analysis, the nylon pouches were retrieved and an Anderson air sampler used to impact the pouch contents onto a medium (soil-pectate-tergitol) selective for growth of V. dahliae. […] The levels of NH3, NO2^− and NO3^− in soil were determined at each sample date. […] The slurry was once again mechanically disrupted and its pH determined. The slurry was centrifuged and supernatant analyzed for total (NH3+NH4^+), (NHO2+NO2^−) and NO3^− using an ion chromatograph.
# [2] = tested on: V. dahliae MS
# Method: The germination of V. dahliae MS was determined using a setup similar to that described above for exposure of V. dahliae MS to NH3 in buffered solution. Exceptions being various amounts of 0.270 M NaNO2 stock solution were added (from 0 to 2.0 mL) to 40 mL of 0.02 M citric acid solution (set to pH 5.0 with NaOH (Perrin and Dempsey 1974)) and brought to 50 mL volume with the same citric acid solution. All experiments were done in triiplicate and repeated. Solutions were filter sterilized and 15 mL placed into sterile screw cap tubes (total capacity 15.5 mL). Immediately, V. dahliae MS were added to each tube, the tube closed, placed at 24° C. and in the dark and inverted twice daily. At 8 hours, 1 and 4 days, V. dahliae MS viability was determined. The concentration of HNO2 in solutions was estimated as described below. The effect of NO2^− on survival of V. dahliae MS was tested by adding various amounts of NaNO2 (0 to 53 mM NO2^−) to citric acid buffer and pH set to 4.0, 5.0 and 6.0. The effect of type of NO2^− salt on survival of V. dahliae MS was tested by adding KNO2 or NaCl instead of NaNO2 to citric acid buffer (set to pH 5.0). […]
# Various concentrations of HNO2 were generated in citric acid buffer solution at pH 4.0, 5.0 or 6.0 with NaNO2 added. […] Microsclerotia survival was determined as described previously for NH3 in glycine buffer.
# [3] = tested on: V. dahliae MS; conditions: sealer jars, 30 mL solution, four days, room temperature
# Method: Exposure of V. dahliae MS to HNO2 gas was done using a similar procedure described above. To sealer jars (250 mL), 50 mL of a prepared solution of NaNO2 in citric acid solution was added. A V. dahliae MS bag was suspended in the atmosphere of the jar. The jar was sealed, and placed at 24° C. in the dark for 4 days. Thereafter the bags were retrieved and the viability of V. dahliae MS determined. This experiment was repeated and done in triplicate.
# Various amounts of HNO2 in atmosphere were subjected to microsclerotia by suspending microsclerotia in sealer jars containing 30 mL of citric acid HNO2 buffer solution and incubated in the dark at room temperature for four days.
# [4] = tested on: V. dahliae MS; conditions: glycine buffer pH 8.6, exposure of four days
# Method: Various concentrations of NH3 were generated in glycine or tricine buffer solution at pH 8.6 with NH4Cl or (NH4)2SO4 added. A 15 mL test tube was filled with appropriate buffer and NH4^+ solution, microsclerotia added, the tube capped, then placed in the dark at 24° C. and the tubes inverted daily to suspend the microsclerotia in solution. Microsclerotia survival was determined by emptying contents of the tube into a Buchner funnel, the microsclerotia being retained on Whatman #42 filter paper, rinsed with distilled water, transferred to SPT medium by placing the filter paper in contact with the agar medium and removed leaving the microsclerotia adhering to the medium.
# The final volume was brought to 50 mL with the same glycine solution. Solutions were then sterilized by filtration through a 0.22 um pore size filter and 15 mL placed into three replicate sterile screw cap tubes (total capacity 15.5 mL) About 200 V. dahliae MS were immediately added to each tube and the tube closed and placed at 24° C. and in the dark. Tubes were inverted every 12 hours to mix and suspend V. dahliae MS in the solution. […] At 8 hours, 1 and 4 days, the contents of each tube was passed onto a Buchner funnel containing sterile filter paper (Whatman #42). […] The viability of V. dahliae MS was determined as the percentage of MS forming colonies out of 50 counted per replicate dish. […]
# [5] = tested on: V. dahliae MS; conditions: agar medium, germination recorded two weeks later
# Method: NH3 was generated in SPT medium by addition of various concentrations of NH4Cl to the medium and varying the pH of the medium (7, 7.6, 8 and 8.5). Immediately following cooling and hardening of the medium, 25 microsclerotia per Petri dish were transferred individually with a needle and germination recorded two weeks later.
# Various amountes of NH4Cl salt (to 0, 25, 50, 100 and 200 mM) was added to soil peclate medium (SPT) and the pH of the medium adjusted to 7.0, 7.6, 8.0 or 8.5 by addition of 5 M NaOH. For each level of NH4Cl and pH, three replicate dishes were poured. The agar was allowed to solidify for 2 hours and immediately thereafter 25 V. dahliae MS were individually transferred to each dish using a sterile hypodermic needle. The dishes were wrapped with Parafilm (American National Can, Neenah Wis.) to limit loss of NH3 by volatilization, and incubated for two weeks at 24° C. in the dark. The viability of V. dahliae MS was determined as percent of total MS forming colonies. The concentration of NH3 in medium was estimated as described below and ranged from 0 to 31 mM. The pH of medium after hardening and two weeks after incubation was tested using pH test strips (ColorpHast pH 5-10; EM Science, Gibbstown N.J.) and was within 0.5 units (limit of resolution of the test strips) of that set at the start.
smiles,measurement,setting,value
N.N.O=S(=O)(O)O [(NH4)2SO4],kill of microsclerotia,"[1]; 400 or 800 mg N kg^−1, air-dried Beauseart soil stored 1.5 years",failed to accumulate HNO2 and kill microsclerotia
same,kill of microsclerotia,"[1]; 400 or 800 mg N kg^−1, recently collected Mackenzie soil",death of microsclerotia
"O=NO [HNO2, nitrous acid]",HNO2 concentration sufficient to kill all microsclerotia,[2],about 0.025 mM
same,calculated HNO2 concentration required to kill all microsclerotia,[2],above 0.10 mM
same,HNO2 solution concentration above which suspended microsclerotia died in atmosphere,[3],0.10 mM
"N [NH3, Ammonia]",NH3 concentration preventing germination of microsclerotia,[4],greater than 5 mM
same,NH3 concentration preventing germination of microsclerotia,[5],> 3 mM
same,NH3 accumulation consistently accompanied with a rapid decline in the viability of microsclerotia in soil,[1]; in soil,greater than 10 mM
same,Ammonia level in soil coinciding with a rapid loss in the viability of microsclerotia,[1],> 20 mM
same,Ammonia level in soil coinciding with a rapid loss in the viability of microsclerotia,[1]; listed as Ammonia,> 65 mg N kg^−1 soil
"N.O [NH4OH, ammonium hydroxide]",addition sufficient to induce levels of NH3 sufficient to kill microsclerotia,"[1]; Thorndale or Beauseart soil, incubated four days (data not shown)",about 1800 mg NH4OH—N kg^−1
